{"source": "ChEMBL document CHEMBL3734692", "about": "“Design and synthesis of 2-oxindole based multi-targeted inhibitors of PDK1/Akt signaling pathway for the treatment of glioblastoma multiforme” (Eur J Med Chem, 2015)", "key": {"[1]": {"molecular_target": "Dual specificity protein kinase CLK1 (Homo sapiens) (UniProt P49759)", "sequence (P49759 whole entry, looked up)": "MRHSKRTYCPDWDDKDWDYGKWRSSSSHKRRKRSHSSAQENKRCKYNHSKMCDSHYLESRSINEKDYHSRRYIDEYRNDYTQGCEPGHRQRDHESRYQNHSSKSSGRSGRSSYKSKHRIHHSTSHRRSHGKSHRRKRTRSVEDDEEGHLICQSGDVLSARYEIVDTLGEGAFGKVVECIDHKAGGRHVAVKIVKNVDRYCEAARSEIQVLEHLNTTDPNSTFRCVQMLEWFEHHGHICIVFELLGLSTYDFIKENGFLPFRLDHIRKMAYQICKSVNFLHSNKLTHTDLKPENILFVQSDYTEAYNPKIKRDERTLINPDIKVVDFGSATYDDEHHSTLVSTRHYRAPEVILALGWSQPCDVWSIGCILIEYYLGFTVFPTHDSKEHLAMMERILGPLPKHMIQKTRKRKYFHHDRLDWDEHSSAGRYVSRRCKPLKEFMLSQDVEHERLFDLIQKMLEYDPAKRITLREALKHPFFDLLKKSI", "experiment": "Inhibition of CLK1 (unknown origin) at 1 uM by selectscreen kinase profiling assay in presence of ATP"}, "[2]": {"system": "ASPC1", "experiment": "Cytotoxicity against human AsPC1 cells assessed as cell viability 10 uM after 72 hrs by cell counting analysis relative to control", "type": "functional"}, "[3]": {"molecular_target": "Dual specificity mitogen-activated protein kinase kinase 2 (Homo sapiens) (UniProt P36507)", "sequence (P36507 whole entry)": "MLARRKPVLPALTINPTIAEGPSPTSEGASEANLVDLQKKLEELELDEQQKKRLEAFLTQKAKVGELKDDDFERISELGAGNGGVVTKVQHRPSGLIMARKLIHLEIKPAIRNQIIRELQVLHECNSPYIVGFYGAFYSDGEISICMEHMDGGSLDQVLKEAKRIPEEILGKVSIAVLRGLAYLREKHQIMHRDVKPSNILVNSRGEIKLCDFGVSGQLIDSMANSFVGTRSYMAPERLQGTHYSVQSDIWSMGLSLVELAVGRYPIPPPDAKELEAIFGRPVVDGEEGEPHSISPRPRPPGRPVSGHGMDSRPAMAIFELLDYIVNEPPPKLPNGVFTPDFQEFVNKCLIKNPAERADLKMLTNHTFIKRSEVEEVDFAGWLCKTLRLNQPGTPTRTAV", "experiment": "Inhibition of MEK2 (unknown origin) at 1 uM by selectscreen kinase profiling assay in presence of ATP"}, "[4]": {"experiment": "Antiproliferative activity against human ANGM-CSS cells assessed as inhibition of cell growth after 96 hrs by WST1 assay", "type": "functional"}, "[5]": {"molecular_target": "Serine/threonine-protein kinase mTOR (Homo sapiens) (UniProt P42345)", "experiment": "Inhibition of mTOR (unknown origin) at 1 uM by selectscreen kinase profiling assay in presence of ATP"}, "[6]": {"species": "Homo sapiens", "experiment": "Inhibition of PKCbeta I (unknown origin) at 1 uM by selectscreen kinase profiling assay in presence of ATP"}, "[7]": {"molecular_target": "Cyclin-dependent kinase 5/CDK5 activator 1 (Homo sapiens) (UniProt Q00535+Q15078)", "experiment": "Inhibition of CDK5/p25 (unknown origin) at 1 uM by selectscreen kinase profiling assay in presence of ATP", "type": "protein-complex assay"}, "[8]": {"experiment": "Antiproliferative activity against human U118MG cells assessed as inhibition of cell growth after 120 hrs by WST1 assay", "type": "functional", "settings": "U-118-MG"}, "[9]": {"experiment": "Induction of apoptosis in human GSC derived from ANGM-CSS cells assessed as dead cells at 1 uM after 7 days by annexin V-FITC/7-AAD dual staining based cell analysis (reference value: 2.33%)", "type": "functional"}, "[10]": {"system": "ANGM-CSS", "experiment": "Induction of human GSC differentiation derived from ANGM-CSS cells assessed as up regulation of olig mRNA expression at 1 uM after 7 days by RT-PCR analysis", "type": "functional, cell-based"}, "[11]": {"experiment": "Induction of apoptosis in human GSC derived from ANGM-CSS cells assessed as live cells at 1 uM after 7 days by annexin V-FITC/7-AAD dual staining based cell analysis (reference value: 91.88%)", "type": "functional"}, "[12]": {"experiment": "Cell cycle arrest in human ANGM-CSS cells assessed as accumulation at G2/M phase at 1 uM after 7 days by based fluorescent reagent based cell analysis (reference value: 23.8%)", "type": "functional"}, "[13]": {"molecular_target": "CDK9/cyclin T1 (Homo sapiens) (UniProt O60563+P50750)", "experiment": "Inhibition of CDK9/cyclin T1 (unknown origin) at 1 uM by selectscreen kinase profiling assay in presence of ATP", "type": "protein-complex assay"}, "[14]": {"molecular_target": "Casein kinase I isoform alpha (Homo sapiens) (UniProt P48729)", "sequence (P48729 2-337 limits assumed)": "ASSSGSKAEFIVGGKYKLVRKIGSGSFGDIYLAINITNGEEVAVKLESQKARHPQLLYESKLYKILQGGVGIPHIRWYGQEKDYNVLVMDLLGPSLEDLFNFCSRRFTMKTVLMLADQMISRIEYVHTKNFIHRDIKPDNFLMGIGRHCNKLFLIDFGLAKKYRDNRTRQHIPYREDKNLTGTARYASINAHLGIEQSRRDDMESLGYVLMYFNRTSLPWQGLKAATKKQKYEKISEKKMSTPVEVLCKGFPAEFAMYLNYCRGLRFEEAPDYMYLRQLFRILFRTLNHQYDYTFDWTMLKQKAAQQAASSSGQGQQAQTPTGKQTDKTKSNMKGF", "experiment": "Inhibition of CK1alpha1 (unknown origin) at 1 uM by selectscreen kinase profiling assay in presence of ATP"}, "[15]": {"molecular_target": "Serine/threonine-protein kinase Chk1 (Homo sapiens, UniProt O14757)", "experiment": "Inhibition of CHK1 (unknown origin) in presence of 10 uM ATP incubated for 1 hr by Z'Lyte assay"}, "[16]": {"molecular_target": "Tyrosine-protein kinase BTK (Homo sapiens) (UniProt Q06187)", "experiment": "Inhibition of BTK (unknown origin) at 1 uM by selectscreen kinase profiling assay in presence of ATP"}, "[17]": {"molecular_target": "PI3-kinase p110-alpha/p85-alpha (Homo sapiens) (UniProt P27986+P42336)", "experiment": "Inhibition of PIK3CA/PIK3R1 (unknown origin) at 1 uM by selectscreen kinase profiling assay in presence of ATP", "type": "protein-complex assay"}, "[18]": {"molecular_target": "Serine/threonine-protein kinase PAK 6 (Homo sapiens) (UniProt Q9NQU5)", "sequence (Q9NQU5 whole entry, looked up)": "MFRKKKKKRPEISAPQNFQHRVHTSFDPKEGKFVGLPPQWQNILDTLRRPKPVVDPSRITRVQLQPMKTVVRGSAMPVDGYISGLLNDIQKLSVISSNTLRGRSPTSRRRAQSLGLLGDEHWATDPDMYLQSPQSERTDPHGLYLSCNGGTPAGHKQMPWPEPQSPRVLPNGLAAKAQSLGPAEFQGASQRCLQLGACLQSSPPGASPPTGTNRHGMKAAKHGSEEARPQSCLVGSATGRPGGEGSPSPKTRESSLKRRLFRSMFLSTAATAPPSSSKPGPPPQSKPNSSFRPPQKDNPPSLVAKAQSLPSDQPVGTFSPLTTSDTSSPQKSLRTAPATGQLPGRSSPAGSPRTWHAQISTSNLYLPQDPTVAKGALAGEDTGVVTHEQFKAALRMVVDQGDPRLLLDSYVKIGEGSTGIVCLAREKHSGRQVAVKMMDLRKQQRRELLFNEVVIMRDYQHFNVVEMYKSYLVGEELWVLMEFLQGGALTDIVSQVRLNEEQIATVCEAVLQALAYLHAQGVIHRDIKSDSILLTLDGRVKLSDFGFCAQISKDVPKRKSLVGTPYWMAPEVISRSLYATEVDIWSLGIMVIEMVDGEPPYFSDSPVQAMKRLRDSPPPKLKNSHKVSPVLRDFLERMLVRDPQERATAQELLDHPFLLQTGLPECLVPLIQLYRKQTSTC", "experiment": "Inhibition of PAK6 (unknown origin) at 1 uM by selectscreen kinase profiling assay in presence of ATP"}, "[19]": {"molecular_target": "Phosphatidylinositol 4-kinase beta (Homo sapiens) (UniProt Q9UBF8)", "experiment": "Inhibition of PI4Kbeta (unknown origin) at 1 uM by selectscreen kinase profiling assay in presence of ATP"}, "[20]": {"molecular_target": "Protein kinase C delta type (Homo sapiens) (UniProt Q05655)", "experiment": "Inhibition of PKCdelta (unknown origin) at 1 uM by selectscreen kinase profiling assay in presence of ATP"}, "[21]": {"molecular_target": "RAC-gamma serine/threonine-protein kinase (Homo sapiens) (UniProt Q9Y243)", "sequence (Q9Y243 whole entry)": "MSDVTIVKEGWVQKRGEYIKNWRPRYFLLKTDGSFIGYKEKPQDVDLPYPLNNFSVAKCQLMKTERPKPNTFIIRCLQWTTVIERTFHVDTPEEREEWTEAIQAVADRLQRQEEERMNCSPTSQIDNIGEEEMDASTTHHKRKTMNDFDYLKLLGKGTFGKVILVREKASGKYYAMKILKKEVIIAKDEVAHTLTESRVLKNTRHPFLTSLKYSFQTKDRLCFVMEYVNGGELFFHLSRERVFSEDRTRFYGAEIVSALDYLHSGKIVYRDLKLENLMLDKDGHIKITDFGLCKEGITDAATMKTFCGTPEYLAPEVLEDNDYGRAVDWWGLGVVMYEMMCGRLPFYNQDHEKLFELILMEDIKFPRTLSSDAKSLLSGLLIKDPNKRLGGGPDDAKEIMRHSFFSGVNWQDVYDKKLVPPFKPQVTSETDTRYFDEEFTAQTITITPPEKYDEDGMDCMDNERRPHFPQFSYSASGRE", "experiment": "Inhibition of AKT3 (unknown origin) at 1 uM by selectscreen kinase profiling assay in presence of ATP"}, "[22]": {"system": "ANGM-CSS", "experiment": "Antiproliferative activity against human GSC derived from ANGM-CSS cells after 7 days by MTS assay", "type": "functional, cell-based"}, "[23]": {"molecular_target": "Protein kinase C zeta type (Homo sapiens) (UniProt Q05513)", "sequence (Q05513 whole entry)": "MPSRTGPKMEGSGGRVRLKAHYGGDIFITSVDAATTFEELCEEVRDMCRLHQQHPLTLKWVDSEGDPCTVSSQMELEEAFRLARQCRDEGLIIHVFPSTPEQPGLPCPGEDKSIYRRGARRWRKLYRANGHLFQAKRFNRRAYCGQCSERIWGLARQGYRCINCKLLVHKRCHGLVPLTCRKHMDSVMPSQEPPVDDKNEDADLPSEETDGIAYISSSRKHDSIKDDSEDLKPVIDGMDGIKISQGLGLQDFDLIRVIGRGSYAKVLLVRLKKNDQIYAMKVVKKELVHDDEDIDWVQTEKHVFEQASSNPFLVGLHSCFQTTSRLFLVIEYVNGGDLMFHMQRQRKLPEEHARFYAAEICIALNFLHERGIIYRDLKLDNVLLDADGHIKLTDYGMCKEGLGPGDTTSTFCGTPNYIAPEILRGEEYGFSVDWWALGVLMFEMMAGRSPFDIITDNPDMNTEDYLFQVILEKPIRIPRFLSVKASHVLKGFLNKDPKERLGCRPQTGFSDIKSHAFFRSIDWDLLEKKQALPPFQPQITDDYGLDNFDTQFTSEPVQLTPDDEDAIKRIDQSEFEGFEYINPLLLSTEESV", "experiment": "Inhibition of PKCzeta (unknown origin) at 1 uM by selectscreen kinase profiling assay in presence of ATP"}, "[24]": {"system": "ANGM-CSS", "experiment": "Antiproliferative activity against human GSC derived from ANGM-CSS cells by MTS assay", "type": "functional, cell-based", "settings": "TDE = time-dependent effect"}, "[25]": {"system": "ANGM-CSS", "experiment": "Induction of human GSC differentiation derived from ANGM-CSS cells assessed as up regulation of MAP2 mRNA expression at 1 uM after 7 days by RT-PCR analysis", "type": "functional, cell-based"}, "[26]": {"system": "ANGM-CSS", "experiment": "Effect on human GSC morphology derived from ANGM-CSS cells assessed as outgrowth of cellular processes at 1 uM after 7 days by microscopic analysis", "type": "functional, cell-based"}, "[27]": {"molecular_target": "CDK2/Cyclin A2 (Homo sapiens) (UniProt P24941+P20248)", "experiment": "Inhibition of CDK2/cyclin A (unknown origin) at 1 uM by selectscreen kinase profiling assay in presence of ATP", "type": "protein-complex assay"}, "[28]": {"experiment": "Antiproliferative activity against human ANGM-CSS cells assessed as inhibition of cell growth after 72 hrs by WST1 assay", "type": "functional"}, "[29]": {"experiment": "Antiproliferative activity against human U118MG cells assessed as inhibition of cell growth after 144 hrs by WST1 assay", "type": "functional", "settings": "U-118-MG"}, "[30]": {"molecular_target": "Serine/threonine-protein kinase Chk2 (Homo sapiens) (UniProt O96017)", "experiment": "Inhibition of CHEK2 (unknown origin) at 1 uM by selectscreen kinase profiling assay in presence of ATP"}, "[31]": {"system": "RAF proto-oncogene serine/threonine-protein kinase (Homo sapiens), P04049 [Y340D,Y341D]", "sequence (P04049 whole entry Y340D/Y341D)": "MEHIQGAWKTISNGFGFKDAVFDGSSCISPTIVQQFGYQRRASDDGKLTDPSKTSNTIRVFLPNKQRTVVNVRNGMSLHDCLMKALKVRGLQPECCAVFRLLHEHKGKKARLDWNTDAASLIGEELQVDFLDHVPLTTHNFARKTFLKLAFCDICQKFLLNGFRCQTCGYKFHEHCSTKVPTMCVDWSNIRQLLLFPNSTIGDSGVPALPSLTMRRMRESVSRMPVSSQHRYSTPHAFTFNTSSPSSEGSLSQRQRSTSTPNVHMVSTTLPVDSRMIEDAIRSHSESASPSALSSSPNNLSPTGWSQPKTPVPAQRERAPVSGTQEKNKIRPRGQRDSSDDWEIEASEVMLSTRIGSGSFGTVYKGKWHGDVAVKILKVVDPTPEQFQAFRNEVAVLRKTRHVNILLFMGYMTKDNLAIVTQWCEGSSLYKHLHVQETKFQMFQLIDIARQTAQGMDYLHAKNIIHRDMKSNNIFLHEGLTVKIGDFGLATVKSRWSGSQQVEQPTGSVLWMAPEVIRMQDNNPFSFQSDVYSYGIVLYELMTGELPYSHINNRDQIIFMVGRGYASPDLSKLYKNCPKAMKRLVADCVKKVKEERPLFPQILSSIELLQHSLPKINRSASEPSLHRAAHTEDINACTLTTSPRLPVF", "experiment": "Inhibition of RAF1 Y340D/Y341D double mutant (unknown origin) at 1 uM by selectscreen kinase profiling assay in presence of ATP"}, "[32]": {"molecular_target": "Mitogen-activated protein kinase 8 (Homo sapiens) (UniProt P45983)", "experiment": "Inhibition of JNK1 (unknown origin) at 1 uM by selectscreen kinase profiling assay in presence of ATP"}, "[33]": {"molecular_target": "MAP kinase-activated protein kinase 2 (Homo sapiens) (UniProt P49137)", "experiment": "Inhibition of MAPKAPK2 (unknown origin) at 1 uM by selectscreen kinase profiling assay in presence of ATP"}, "[34]": {"experiment": "Induction of apoptosis in human ANGM-CSS cells assessed as early apoptotic cells at 1 uM after 7 days by annexin V-FITC/7-AAD dual staining based cell analysis (reference value: 2.12%)", "type": "functional"}, "[35]": {"experiment": "Cell cycle arrest in human ANGM-CSS cells assessed as accumulation at S phase at 1 uM after 7 days by based fluorescent reagent based cell analysis (reference value: 4.1%)", "type": "functional"}, "[36]": {"molecular_target": "Tyrosine-protein kinase JAK1 (Homo sapiens) (UniProt P23458)", "sequence (P23458 whole entry)": "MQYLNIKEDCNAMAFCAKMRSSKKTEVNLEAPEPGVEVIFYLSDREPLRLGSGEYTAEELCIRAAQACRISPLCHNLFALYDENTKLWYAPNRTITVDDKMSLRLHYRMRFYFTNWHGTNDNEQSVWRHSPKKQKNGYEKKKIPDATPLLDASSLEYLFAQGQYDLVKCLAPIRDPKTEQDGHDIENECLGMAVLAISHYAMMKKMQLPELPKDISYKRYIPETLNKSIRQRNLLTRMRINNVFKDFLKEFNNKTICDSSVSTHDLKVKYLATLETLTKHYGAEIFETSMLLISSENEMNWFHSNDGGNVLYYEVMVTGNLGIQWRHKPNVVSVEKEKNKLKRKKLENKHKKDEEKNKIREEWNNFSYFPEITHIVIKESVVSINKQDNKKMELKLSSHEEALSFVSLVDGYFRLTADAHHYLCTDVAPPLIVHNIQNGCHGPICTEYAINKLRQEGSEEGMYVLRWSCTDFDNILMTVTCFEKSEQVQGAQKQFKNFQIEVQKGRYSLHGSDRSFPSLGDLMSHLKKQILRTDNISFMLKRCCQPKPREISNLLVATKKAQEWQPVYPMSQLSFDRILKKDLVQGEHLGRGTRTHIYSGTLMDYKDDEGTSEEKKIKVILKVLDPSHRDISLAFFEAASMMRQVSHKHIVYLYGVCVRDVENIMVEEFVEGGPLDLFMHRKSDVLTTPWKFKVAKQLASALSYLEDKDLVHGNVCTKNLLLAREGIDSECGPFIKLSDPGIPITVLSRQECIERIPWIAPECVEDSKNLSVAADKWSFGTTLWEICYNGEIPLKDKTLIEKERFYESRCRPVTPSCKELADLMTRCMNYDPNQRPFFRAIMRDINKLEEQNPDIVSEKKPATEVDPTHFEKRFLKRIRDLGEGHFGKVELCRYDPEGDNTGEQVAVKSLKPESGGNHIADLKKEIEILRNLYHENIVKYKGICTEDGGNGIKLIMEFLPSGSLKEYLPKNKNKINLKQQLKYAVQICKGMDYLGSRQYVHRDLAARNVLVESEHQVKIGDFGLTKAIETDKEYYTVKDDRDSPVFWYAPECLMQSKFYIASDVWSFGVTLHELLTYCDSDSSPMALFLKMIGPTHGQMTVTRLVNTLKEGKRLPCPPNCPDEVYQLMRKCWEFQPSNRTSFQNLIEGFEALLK", "experiment": "Inhibition of JAK1 (unknown origin) at 1 uM by selectscreen kinase profiling assay in presence of ATP"}}, "note": "Active and inactive are the calls of the source. No cut-off for these calls is given here.", "data": [{"smiles": "COc1cc2c(cc1OC)CN(CC(=O)Nc1ccc3c(c1)/C(=C/c1cnc[nH]1)C(=O)N3)CC2", "values": [{"measurement": "inhibition", "setting": "[1]", "value": 8, "unit": "%"}, {"measurement": "Activity", "setting": "[2]", "value": 68.14, "unit": "%"}, {"measurement": "inhibition", "setting": "[3]", "value": 37, "unit": "%"}, {"measurement": "GI50", "setting": "[4]", "value": 7.5, "unit": "µM"}, {"measurement": "inhibition", "setting": "[5]", "value": -4, "unit": "%"}, {"measurement": "inhibition", "setting": "[6]", "value": -6, "unit": "%"}, {"measurement": "inhibition", "setting": "[7]", "value": 45, "unit": "%"}, {"measurement": "GI50", "setting": "[8]", "value": 16.7, "unit": "µM"}, {"measurement": "Activity", "setting": "[9]", "value": 1.1, "unit": "%"}, {"measurement": "Activity", "setting": "[10]", "value": "Active"}, {"measurement": "Activity", "setting": "[11]", "value": 81.32, "unit": "%"}, {"measurement": "Activity", "setting": "[12]", "value": 17.2, "unit": "%"}, {"measurement": "inhibition", "setting": "[13]", "value": 9, "unit": "%"}, {"measurement": "inhibition", "setting": "[14]", "value": 4, "unit": "%"}, {"measurement": "IC50", "setting": "[15]", "value": 0.274, "unit": "µM"}, {"measurement": "inhibition", "setting": "[16]", "value": 12, "unit": "%"}, {"measurement": "inhibition", "setting": "[17]", "value": -6, "unit": "%"}, {"measurement": "inhibition", "setting": "[18]", "value": 2, "unit": "%"}, {"measurement": "inhibition", "setting": "[19]", "value": 5, "unit": "%"}, {"measurement": "inhibition", "setting": "[20]", "value": -5, "unit": "%"}, {"measurement": "inhibition", "setting": "[21]", "value": 8, "unit": "%"}, {"measurement": "inhibition", "setting": "[22]", "value": "Dose-dependent effect"}, {"measurement": "inhibition", "setting": "[23]", "value": 0, "unit": "%"}, {"measurement": "inhibition", "setting": "[24]", "value": "tde"}, {"measurement": "Activity", "setting": "[25]", "value": "Active"}, {"measurement": "Activity", "setting": "[26]", "value": "Active"}, {"measurement": "inhibition", "setting": "[27]", "value": 30, "unit": "%"}, {"measurement": "GI50", "setting": "[28]", "value": 7.73, "unit": "µM"}, {"measurement": "GI50", "setting": "[29]", "value": 16.1, "unit": "µM"}, {"measurement": "inhibition", "setting": "[30]", "value": 24, "unit": "%"}, {"measurement": "inhibition", "setting": "[31]", "value": 25, "unit": "%"}, {"measurement": "inhibition", "setting": "[32]", "value": 5, "unit": "%"}, {"measurement": "inhibition", "setting": "[33]", "value": -2, "unit": "%"}, {"measurement": "Activity", "setting": "[34]", "value": 6.77, "unit": "%"}, {"measurement": "Activity", "setting": "[35]", "value": 4.1, "unit": "%"}, {"measurement": "inhibition", "setting": "[36]", "value": -1, "unit": "%"}]}]}
